From patent US6555550B1, “Musarinic agonists and antagonists” (UCB, S. A.,, priority 1998, dated 2003)

Key:
cloned human M4 mAChRs = target: T1, cloned human M4 mAChRs (Homo sapiens, UniProt P08173); test: Binding to cloned human M4 mAChRs expressed in CHO-Kl cells; details: 2.5 nM 3H-oxotremorine M, CHO-Kl M4 membranes, pH 7
T1 construct: expressed in transfected cells; host or cells: CHO-K1 cells (membrane preparation)
T1 sequence (P08173 1-479): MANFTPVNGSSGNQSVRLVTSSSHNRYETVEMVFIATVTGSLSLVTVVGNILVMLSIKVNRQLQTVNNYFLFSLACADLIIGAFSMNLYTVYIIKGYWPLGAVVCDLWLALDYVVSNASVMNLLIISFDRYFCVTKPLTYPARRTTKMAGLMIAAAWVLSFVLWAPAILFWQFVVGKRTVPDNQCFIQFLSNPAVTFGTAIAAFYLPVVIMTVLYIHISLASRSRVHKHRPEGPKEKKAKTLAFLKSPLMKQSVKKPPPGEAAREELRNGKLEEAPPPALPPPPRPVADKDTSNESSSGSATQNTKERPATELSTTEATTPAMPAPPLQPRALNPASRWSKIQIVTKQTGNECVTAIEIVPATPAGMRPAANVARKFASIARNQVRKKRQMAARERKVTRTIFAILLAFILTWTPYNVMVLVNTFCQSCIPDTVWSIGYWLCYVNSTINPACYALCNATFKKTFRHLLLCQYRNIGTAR
Description: Binding to Cloned Human M4 […] Expressed in CHO-Kl Cells
The following protocol was used to detect binding to cloned human M4 mAChRs expressed in CHO-Kl cells.
A membrane preparation was made from CHO-Kl cells expressing human M4 mAChRs. Aliquots of membrane were stored at −70° C. until thawed on the day of assay. For each assay, CHO-Kl M4 membrane preparation (approximately 20 μg of protein) was incubated with test compound and 2.5 nM ^3H-oxotremorine M (DuPont, NEN) in 20 mM HEPES buffer, pH 7 in an assay volume of 200 μl. Assays were incubated in 96-well polypropylene plates for 40 minutes at room temperature. Nonspecific binding was determined in samples incubated in parallel in the presence of 10 μM atropine (Sigma) instead of test compound. The incubations were terminated by rapid vacuum filtration using a Packard plate harvester through 96-well Whatman GF/B filter plates presoaked in 0.5% polyethylenimine. The filter plate was washed rapidly four times with 0.2 ml aliquots of water. The plate was dried by placing under a heat lamp for 5 minutes. The plate was counted using a Packard scintillation counter after addition of 35 μl Microscint 20 scintillation fluid. Data were analyzed by nonlinear regression analysis.
Results from this assay are used to show the ability of compounds of this invention to bind to the agonist binding site of the muscarinic M4 receptor. Compounds which bind to this site have specific utility in the treatment of pain, schizophrenic disorders and cognitive disorders such as AD.

Female CD-1 mice [1] = test: Tail-flick assay; type: in vivo; details: injection, % MPE, 10-second cut-off; for ED50: Mus musculus
From the text: The tail flick assay is a commonly used animal model of analgesia. It is a stringent enough assay such that opiates (e.g., morphine) show activity in this model, whereas the non-steroidal antiinflammatories (NSAD's) such as ibuprofen are ineffective. As such, it is a useful assay system for investigating the utility of novel compounds for the treatment of severe and chronic pain.
Female CD-1 mice, weighing 20-30 grams were obtained from Charles River laboratories (Wilmington, Mass., USA). A commercially available tail-flick analgesia meter was used (Model TF-6 Analgesia Meter, Emdie Instrument Co., Maidens, Va.). […] A 10-second cut-off time was used as the maximum latency to avoid damage to the mice tails. The latency of each mouse (a mean of two separate test results for each time-point), was obtained at 0 (immediately prior to dosing), 5, 15, 30, and 60 min. time-points after injection of compounds and the % Maximum Possible Effect (% MPE) was calculated by using the formula, % MPE=[(postdrug latency−predrug latency)÷(cutoff time−predrug latency)]×100.

Female CD-1 mice [2] = test: Sedation by visual inspection; type: in vivo; details: at tail-flick ED50 dose
From the text: Sedation was noted by close visual inspection of the animal.

Female CD-1 mice [3] = test: Body temperature (rectal probe); type: in vivo; details: at tail-flick ED50 dose; core temperature
Description: At ambient temperature, a temperature probe (type T Thermocouple Thermometer, BAT-10; Physitemp Inc., Clifton, N.J.) was inserted 1.0 cm into the rectum of mice to measure their core temperature and recorded at 0 (before drug as a control baseline), 10, 25 and 55 min after injection of compounds.

Compound	Human M4 in CHO-K1 Assay (cloned human M4 mAChRs) [nM]	ED50 (Female CD-1 mice [1]) [mg/kg]	Side Effect Profile at ED50 Dose: Sedation (Female CD-1 mice [2])	Side Effect Profile at ED50 Dose: Hypothermia (Female CD-1 mice [3]) [°C]	Tail-Flick ED50 (Female CD-1 mice [1]) [mg/kg]
Clc1nsnc1C1C2CC3CC1CN(C3)C2 (stereo not shown) [Cmpd 7, 3-(5-Azatricyclo[3.3.1.1<3,7>]dec-2-yl)-4-chloro-1,2,5-thiadiazole]	>88				
CCCOc1nsnc1C1C2CC3CC1CN(C3)C2 (stereo not shown) [Cmpd 12, 3-(5-azatricyclo[3.3.1.1<3,7>]dec-2-yl)-4-propoxy-1,2,5-thiadiazole]	0.74	4.5	Slight	1.0	
CCCCOc1nsnc1C1C2CC3CC1CN(C3)C2 (stereo not shown) [Cmpd 13, 3-(5-azatricyclo[3.3.1.1<3,7>]dec-2-yl)-4-butoxy-1,2,5-thiadiazole]	10				
CCCCOc1nsnc1C1C2CC3CC1CN(C3)C2 (stereo not shown) [Cmpd 14, 3-(5-azatricyclo[3.3.1.1<3,7>]dec-2-yl)-4-butoxy-1,2,5-thiadiazole]	3.8	> 10	Slight	2.0	
C1CC1COc1nsnc1C1C2CC3CC1CN(C3)C2 (stereo not shown) [Cmpd 16, 3-(5-azatricyclo[3.3.1.1<3,7>]dec-2-yl)-4-(cyclopropylmethoxy)1,2,5-thiadiazole]	<1.4	1.4	Sedation	1.5	
CC(C)COc1nsnc1C1C2CC3CC1CN(C3)C2 (stereo not shown) [Cmpd 18, 3-(5-azatricyclo[3.3.1.1<3,7>]dec-2-yl)-4-(2-methyl-propoxy)-1,2,5-thiadiazole]		> 5	No sedation	0	
COc1nsnc1C1C2CC3CC1CN(C3)C2 (stereo not shown) [Cmpd 21, 3-(5-azatricyclo[3.3.1.1<3,7>]dec-2-yl)-4-methoxy-1,2,5-thiadiazoles]	5.9		No sedation	0	>5
CCOc1nsnc1C1C2CC3CC1CN(C3)C2 (stereo not shown) [Cmpd 23, 3-(5-azatricyclo[3.3.1.1<3,7>]dec-2-yl)-4-ethoxy-1,2,5-thiadiazoles]	0.46		No sedation	0.5	1.5
C(CC1CC1)Oc1nsnc1C1C2CC3CC1CN(C3)C2 (stereo not shown) [Cmpd 25, 3-(5-azatricyclo[3.3.1.1<3,7>]dec-2-yl)-4-(cyclopropylethoxy)-1,2,5-thiadiazoles]			Slight	1.5	4.5
CCC(C)Oc1nsnc1C1C2CC3CC1CN(C3)C2 (stereo not shown) [Cmpd 27, 3-(5-azatricyclo[3.3.1.1<3,7>]dec-2-yl)-4-(1-methyl-propoxy)-1,2,5-thiadiazoles]	1.55		No sedation	0	>5
CCCSc1nsnc1C1C2CC3CC1CN(C3)C2 (stereo not shown) [Cmpd 29, 3-(5-Azatricyclo[3.3.1.1<3,7>]dec-2-yl)-4-propylthio-1,2,5-thiadiazoles]			Very slight	0.5	<1
CCSc1nsnc1C1C2CC3CC1CN(C3)C2 (stereo not shown) [Cmpd 30, 3-(5-Azatricyclo[3.3.1.1<3,7>]dec-2-yl)-4-ethylthio-1,2,5-thiadiazole]		0.3	Sedation	1	
CCCCSc1nsnc1C1C2CC3CC1CN(C3)C2 (stereo not shown) [Cmpd 31, 3-(5-Azatricyclo[3.3.1.1<3,7>]dec-2-yl)-4-butylthio-1,2,5-thiadiazole]		0.3	No sedation	0	
C1CC1CSc1nsnc1C1C2CC3CC1CN(C3)C2 (stereo not shown) [Cmpd 32, 3-(5-Azatricyclo[3.3.1.1<3,7>]dec-2-yl)-4-(cyclopropylmethyl)thio-1,2,5-thiadiazole]		< 1	Sedation	<2	
CCOc1nsnc1C1C2CC3CC1CN3C2 (stereo not shown) [Cmpd 34, 4-(3-Azatricyclo[3.3.1.0<3,7>]non-9-yl)-3-ethoxy-1,2,5-thiadiazoles]	4.6				>2
CCCOc1nsnc1C1C2CC3CC1CN3C2 (stereo not shown) [Cmpd 36, 4-(3-Azatricyclo[3.3.1.0<3,7>]non-9-yl)-3-propyloxy-1,2,5-thiadiazoles]	3.2				>5
CC(C)COc1nsnc1C1C2CC3CC1CN3C2 (stereo not shown) [Cmpd 38, 4-(3-Azatricyclo[3.3.1.0<3,7>]non-9-yl)-3-isobutyloxy-1,2,5-thiadiazoles]					>5
